Test results taken from patent US20190287644A1, “Correlation Method To Identify Relevant Genes For Personalized Treatment Of Complex Disease” (Northeastern University, priority 2018, published 2019).

Key:
[1] = test system: Hybrid Mouse Diversity Panel (HMDP) strains; assay: ISO-induced cardiac hypertrophy (total heart weight) in the Hybrid Mouse Diversity Panel; assay type: in vivo; details: across HMDP strains, three weeks after implantation of ISO pump (30 mg per kg per day, 21 days)
Protocol: 30 mg per kg body weight per day of Isoproterenol (ISO) was administered for 21 days in 8-10 week old female mice using ALZET osmotic mini-pumps, which were surgically implanted intraperitoneally. All animal experiments were conducted following guidelines established and approved by the University of California, Los Angeles Institutional Animal Care and Use Committee (IACUC) and housed in an IACUC-approved vivarium with daily monitoring by vivarium personnel.
As each mouse in a strain is genetically identical, several mice from the same strain were used for measuring the cardiac hypertrophic response to ISO treatment. […] Cardiac hypertrophy for a given strain was calculated as the increase in average total heart weight after ISO treatment compared to control mice.
One can also perform an entirely novel type of differential gene expression analysis owing to the fact that, in addition to control and treated subjects belonging to the same strain having the same genetic background, the change of heart mass in response to ISO, i.e., the ratio m′i/mi of total heart mass before (mi) and after ISO treatment (m′i) for strain i, can be measured for all strains (i=1, 2, . . . , N) to assess the degree of hypertrophy among different strains. […]

[2] = test system: Nppa and Nppb; assay: Expression of hypertrophic markers Nppa and Nppb in neonatal rat ventricular myocytes (qPCR); assay type: cell-based; details: NRVMs transfected with control siRNA
Protocol: (§1) Right ventricular myocytes were isolated and cultured, as reported using 2-4 day old rats. Myocytes and fibroblasts were separated with Percoll density gradient. For knockdown experiments cells were transfected with Hes1 siRNA using lipofectamine RNAimax (life technologies).
RNA isolation from cells was performed using Qiazol lysis reagent. cDNA synthesis was performed using the High Capacity Reverse Transcription cDNA Kit (Life Technologies). qPCR was performed using the LightCycler 480 (Roche).

[3] = test system: neonatal rat ventricular myocytes (NRVMs); assay: Cardiomyocyte cell cross-sectional area; assay type: cell-based; details: cells transfected with control siRNA, following ISO/PE treatment
Excerpt: as §1
Quantification of cardiomyocyte cell cross-sectional area was done following transfection with either control or Hes1 siRNA and a 48-hour treatment with control or isoproterenol or phenylepherine containing media. Images were taken on a Nikon Eclipse TE2000-U microscope. Images were analyzed using the Nikon Imagine System (NIS). 150 cells were used to compute the SEM.

| SMILES | increase of heart mass [1] [%] | increase of Nppa expression [2] [fold] | increase of Nppb expression [2] [fold] | cellular cross-sectional area [3] |
| --- | --- | --- | --- | --- |
| CC(C)NCC(O)c1ccc(O)c(O)c1 (stereo not shown) [ISO, isoproterenol] | ≤ 80 | 3.5 | 7.9 | doubled |
| CNC[C@H](O)c1cccc(O)c1 [PE, phenylephrine] |  | 11 | 13 | doubled |
